Measured values: PubChem BioAssay AID179 (DTP/NCI, 2004)
The source made the active and inactive calls.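 The calls were made as follows: active = compounds giving half or more protection of infected cells from virus-caused growth loss, again on retest; inactive = the rest.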 Where a SMILES comes first, the peptide text is derived from it. The star is where a group is joined. OBn = c1ccc(CO*)cc1

Test system: CEM cells HIV-1 protection, formazan growth assay
Experiment: NCI AIDS Antiviral Assay
Details: for IC50: measured here: growth of uninfected CEM cells
In short: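 Five concentrations of each compound were applied to infected and uninfected human CEM cells. Protection from HIV-1 was judged from growth measured with a soluble formazan assay.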

| SMILES | EC50 | IC50 | outcome |
| --- | --- | --- | --- |
| CC1OC(c2ccc3c(OCc4ccccc4)cccc3c2O)CC(OCc2ccccc2)[C@H]1OCc1ccccc1 (stereo partly drawn) | > 200 µM | > 200 µM | – |
| CCOC(=O)C1=C(C)C(C(=O)OC)/C(=C/c2cccc3cccnc23)C1=O (stereo not drawn) | > 200 µM | 10.7 µM | – |
| O=C(N=Nc1cccc(Cl)c1)NNc1cccc(Cl)c1 | > 200 µM | 15.5 µM | – |
| O=C(c1ccco1)C1CC(c2c(O)ccc3ccccc23)=NN1 (stereo not drawn) | > 200 µM | 11.5 µM | – |
| CCOc1ncn(-c2ccc(NC(=S)NC3OC(CO)C(O)C(O)C3O)cc2)n1 (stereo not drawn) | > 200 µM | > 200 µM | – |
| O=c1[nH]c(N/N=C\C(O)C(O)C(O)C(O)CO)nc2ccccc12 (stereo not drawn) | > 200 µM | > 200 µM | – |
| Cc1cc(C)nc(Nc2nc3ccc([N+](=O)[O-])cc3[nH]2)n1 | > 871 µM | 407 µM | – |
| O=Nc1ccccc1N=O | – | – | inactive |
| CCC1(C)C(C#N)(C#N)C1(C#N)C#N | > 200 µM | 1.29 µM | – |
| O=C(c1ccccc1)c1ccsc1C(=O)c1ccccc1 | > 200 µM | 36.3 µM | – |
| NC(CCC(=O)OCc1ccccc1)C(=O)NC(CCC(=O)OCc1ccccc1)C(=O)O (stereo not drawn) (H-Glu(OBn)-Glu(OBn)-OH; configuration not given here) | > 1000 µM | > 1000 µM | – |
| [N-]=[N+]=Nc1c(N2CCOCC2)c(Cl)nc2ccccc12 | > 200 µM | 55 µM | – |
| Cc1ccc(SSc2ccc(C)c(Cl)c2)cc1Cl | > 200 µM | > 200 µM | – |
| CC(C)(C)c1ccn[nH]1.CC(C)(C)c1ccn[nH]1.[Cl-].[Cl-].[O]=[V][O-] | > 200 µM | 35.5 µM | – |
| O=c1[nH]c(=O)n2c3c1ncn3CC=CC2 | > 35.5 µM | 17 µM | – |
| O=C(CCc1ccc(O)c(O)c1)NCCc1ccccc1 | > 200 µM | 21.9 µM | – |
| CC1(N2CCOCC2)CC2C(=[N+]1[O-])CCC/C2=N/O (stereo not drawn) | > 200 µM | > 200 µM | – |
| CCCCCCCCCCNCCSSCc1ccccc1 | > 200 µM | 8.91 µM | – |
| O=C1CS(=O)(=O)C(c2cccc(F)c2)N1N1C(=O)CS(=O)(=O)C1c1cccc(F)c1 (stereo not drawn) | > 200 µM | > 200 µM | – |
| CCCCCCCCCc1cc(=O)c2c(O)cc(O)cc2o1 | – | – | inactive |
| COc1cc(C(CC(C)=O)c2cc3c(cc2OC(C)=O)OCO3)cc(OC)c1OC (stereo not drawn) (tested in a mixture with another compound) | > 105 µM | 0.135 µM | – |
| NC(=O)NC12CC3CC(CC(F)(C3)C1)C2 | > 1170 µM | > 1170 µM | – |
| CN=C(NCCCN1CCOCC1)c1ccc(NC(=O)c2ccc(C(=O)Nc3ccc(C(=NC)NCCCN4CCOCC4)cc3)cc2)cc1 | > 200 µM | 120 µM | – |

| SMILES | EC50 | IC50 | outcome |
| --- | --- | --- | --- |
| Nc1c([N+](=O)[O-])nc(Cl)c2nncn12 | > 234 µM | 120 µM | – |
| C=C(C)CCC1CC=[N+]([O-])OC1C(C)(C)C (stereo not drawn) | > 200 µM | 28.8 µM | – |
| c1ccc(Nn2c(CCCCCCCCc3nnc(COc4ccccc4)n3Nc3ccccc3)nnc2COc2ccccc2)cc1 | > 2 µM | > 2 µM | – |
| O=C1C(Cl)=C(Cl)C(=O)N1c1c(F)c(F)c(F)c(F)c1F | – | – | inactive |
| N#CC(NCCc1ccccc1)c1ccc(OCCCCCCCCCCOc2ccc(C(C#N)NCCc3ccccc3)cc2)cc1 (stereo not drawn) | > 50.1 µM | 22.9 µM | – |
| CCCCCCCCCC(=O)CC(=O)c1c(O)cc(O)cc1O | > 200 µM | 26.3 µM | – |
| C=CCSC(C)=O | > 200 µM | > 200 µM | – |
| CC1=Nc2nc3ccccc3n2C(C)(C)C1 | > 174 µM | 112 µM | – |
| CC(=O)OC(C)(C)/C=C/C(=O)[C@](C)(O)[C@H]1[C@H](O)C[C@@]2(C)[C@@H]3CC=C4[C@@H](C[C@H](O)C(=O)C4(C)C)[C@]3(C)C(=O)C[C@]12C | > 0.2 µM | 0.00955 µM | – |
| Cc1ccc([N+](=O)[O-])cc1NC(=O)C(=O)Cc1nc2ccc(C(=O)c3ccccc3)cc2[nH]c1=O | > 275 µM | 110 µM | – |
| Cc1ccc(CN=C(N)CSS(=O)(=O)O)cc1C | > 200 µM | > 100 µM | – |
| CSC1=NCc2c(sc3c2CCCC3)N1 | > 200 µM | 35.5 µM | – |
| [N-]=[N+]=NC1(N=[N+]=[N-])C(=O)NN=C(c2ccccc2)C1=O (stereo not drawn) | – | – | inactive |
| Nc1ncnc2c1ncn2C1CCC(CO)OC1 (stereo not drawn) | > 200 µM | > 200 µM | – |
| Clc1ccc(COC(Cn2ccnc2)c2ccc(Cl)cc2Cl)cc1 (stereo not drawn) | > 200 µM | 34.7 µM | – |
| O=C(O)Cc1cccc2c1OC(c1ccccc1)C(C(=O)c1ccccc1)C2=O (stereo not drawn) | > 200 µM | 75.9 µM | – |
| O=C1/C(=C\c2cccc(Oc3ccccc3)c2)S(=O)(=O)C(c2ccccc2)N1c1ccc(Cl)cc1 (stereo not drawn) | > 20 µM | – | – |
| O=[N+]([O-])c1ccc(CSC2=C(c3ccc(Cl)cc3)S/C(=C3\SC(SCc4ccc([N+](=O)[O-])cc4)=C(c4ccc(Cl)cc4)S3)S2)cc1 | > 200 µM | > 200 µM | – |
| Cc1nn[n-]n1.N.N.N.N.N.[Cl-].[Co+3] | > 832 µM | > 832 µM | – |
| COc1cc(CNC2=NCCC2)cc(OC)c1OC | > 200 µM | 47.9 µM | – |
| CNC(=O)N1N[C@H](c2ccccc2)[C@@H]1c1ccccc1 | > 200 µM | 42.7 µM | – |
| NC/C(=C\C(=O)O)c1ccc(Cl)cc1 | – | – | inactive |
| COCCN(C(C)=O)C1CCC2(SCCS2)c2[nH]c3ccccc3c21 (stereo not drawn) | > 200 µM | > 200 µM | – |

| SMILES | EC50 | IC50 | outcome |
| --- | --- | --- | --- |
| Cc1ccc(-c2c(C#N)c(O)n(NS(=O)(=O)c3ccccc3)c(=O)c2C#N)cc1 | > 200 µM | > 200 µM | – |
| C=C1CN(S(=O)(=O)c2ccc(C)cc2)CCCN(CCCC)CCCN(S(=O)(=O)c2ccc(C)cc2)C1 | > 200 µM | 1.91 µM | – |
| Cc1cc(O)c2c(c1)C(C1c3cccc(O)c3C(=O)c3c(O)cc(C)cc31)c1cccc(O)c1C2=O (stereo not drawn) | > 2 µM | 0.0912 µM | – |
| CCC1(CC)C(=O)N(C(=O)c2ccc(Cl)cc2)N(C(=O)c2ccccc2Cl)C1=O | > 200 µM | 45.7 µM | – |
| COC(=O)c1nc(N)nc(C(=O)OC)c1C(=O)/C=C/c1ccccc1 | > 741 µM | 324 µM | – |
| Nc1ccccc1C(=O)CCC1C(=O)NC(=S)NC1=O | > 6.92 µM | > 6.92 µM | – |
| CC(=O)OC12CC(C)C3(O)C4C=C(C)C(=O)[C@@]4(O)CC(CO)=C[C@H]3C1C2(C)C (stereo partly drawn) | – | – | active |
| CCCCCCCNC(=S)N/N=C/c1ccccc1O | > 200 µM | 10.5 µM | – |
| Nc1ccn(C2OC(CO)C(O)C2Br)c(=O)n1 (stereo not drawn) | > 200 µM | 0.0631 µM | – |
| COC(=O)c1ccccc1C1CN=NC12Cc1ccc(C)cc1C2=O (stereo not drawn) | > 200 µM | 63.1 µM | – |
| CN(CO)c1nc(N(C)CO)nc(N(C)CO)n1 | > 26.3 µM | 24 µM | – |
| Cn1cc2ccccc2c1-c1nc(F)nc(OCC(=O)[C@H]2CCC3[C@@H]4CCC5=CC(=O)CC[C@]5(C)C4[C@@H](O)C[C@@]32C)n1 (stereo partly drawn) | > 9.12 µM | 2.75 µM | – |
| N#Cc1c(Cl)c2cccnc2n2c1nc1ccccc12 | > 200 µM | 0.339 µM | – |
| COc1ccc(NC(=O)/C(=C\N2C(=O)CC(=O)NC2=S)C(C)=O)cc1 | > 200 µM | 25.7 µM | – |
| Cc1ccc(NC(=O)CC(=O)n2nc(-c3ccccc3)c(N=Nc3ccccc3Cl)c2-c2ccccc2)cc1 | > 9.77 µM | > 9.77 µM | – |
| NC(N)=NNC(=O)CCn1[nH]c(=O)c(Cl)c(Cl)c1=O | > 813 µM | > 813 µM | – |
| CN=C(n1ccnc1)n1ccnc1 | > 200 µM | > 200 µM | – |
| COc1cc2cc[n+]3c(C)c4cc(OC)c(OC)cc4c([O-])c3c2cc1OC | > 200 µM | 123 µM | – |
| CCN(CC)/[N+]([O-])=N/OC | – | – | inactive |
| COc1ccc(NC(=O)C(/C=N\C(=S)NNC(C)=O)=C(\C)O)cc1 | > 200 µM | > 200 µM | – |
| CCC12C=CCN3CCC4(C(=C(C(=O)OC)[C@@H]1O)Nc1ccccc14)C32 (stereo partly drawn) | > 141 µM | 2.34 µM | – |
| CCOC(=O)CC(C)C1(C(=O)OCC)CCCCC1=O (stereo not drawn) | > 331 µM | > 331 µM | – |
| CN(C)c1ccc(C(C=C2c3ccccc3Sc3ccccc32)=C(C#N)C#N)cc1 | – | – | inactive |

| SMILES | EC50 | IC50 | outcome |
| --- | --- | --- | --- |
| COC(=O)C(=O)C(CC(=O)Nc1cc(Cl)ccc1Cl)C(=O)OC (stereo not drawn) | > 7.59 µM | > 7.59 µM | – |
| Cc1ccc(C2OC(=O)c3c2ccc2ccccc32)cc1 (stereo not drawn) | > 35.5 µM | > 35.5 µM | – |
| COc1ccc(-c2nnc3c4ccccc4sn23)cc1 | > 25.7 µM | 22.4 µM | – |
| COc1ccc2c(c1)c1c(n2CCN2CCCCC2)-c2ccccc2CC1 | > 200 µM | 13.2 µM | – |
| CC(=O)NNc1nc(C)c(C(=O)NNC(=O)C(=O)Nc2c(C)cccc2C(C)(C)C)s1 | > 151 µM | 26.3 µM | – |
| COc1c2c(c3c(c1CCC(=O)O)OC(C)(C)C=C3)OC(C)(C)C=C2 | > 200 µM | 138 µM | – |
| COC(=O)c1ccc(/C=C2\Oc3ccccc3C2=O)cc1 | > 200 µM | > 200 µM | – |
| CCOC(=O)n1c2ccccc2c(=O)n1CCO | > 200 µM | > 200 µM | – |
| O=C1CC(=O)NC(=NNS(=O)(=O)c2ccccc2)N1 | > 200 µM | > 200 µM | – |
| O=C(Nc1ccc(C2=NCC(O)CN2)cc1)c1ccc(C(=O)Nc2ccc(C3=NCC(O)CN3)cc2)cc1 (stereo not drawn) | 12.9 µM | > 200 µM | – |
| COc1cc2c(c(OC)c1OC)CCC1(C)C(=O)NN=C21 (stereo not drawn) | > 871 µM | 275 µM | – |
| C/C(=C\c1ccccc1)C(O)S(=O)(=O)O (stereo not drawn) | – | – | inactive |
| NCCC1([N+](=O)[O-])C=CN=CC1 (stereo not drawn) | – | – | inactive |
| O=C1NC(=O)C(=Cc2ccccc2Br)C(=O)N1 | > 229 µM | 2.4 µM | inactive |
| Cc1ccc(-n2cc(/C(N)=N/O)c3ccccc3c2=O)cc1 | > 89.1 µM | > 89.1 µM | – |
| CCOC(=O)/C(C1=N[C@H](C(=O)OCC)CS1)=C(\O)c1ccccc1 | > 145 µM | > 145 µM | – |
| Cc1sc2[nH]c(=O)oc(=O)c2c1C | > 200 µM | 30.2 µM | – |
| CCOCCN(Cc1ccc(CN(CCOCC)C(=O)C(Cl)Cl)cc1)C(=O)C(Cl)Cl | > 200 µM | > 200 µM | – |
| CCCOc1cc2c(c3oc(=O)cc(CCC)c13)C(=O)[C@H](C)[C@@H](C)O2 | > 200 µM | 5.5 µM | – |
| O=C1c2ccccc2C(=O)c2c1nc1sccn21 | > 200 µM | 32.4 µM | – |
